From patent publication US20230365592A1 (Agios Pharmaceuticals, Inc., priority 2022, published 2023)

target: T1, human PAH with the R408W mutation (Homo sapiens, UniProt P00439, R408W); assay: Cell Based Phenylalanine Flux Assay; details: A375 cells expressing R408W PAH; 24 hrs with compound, then 20 µM sepiapterin and 800 µM 13C9,15N-Phenylalanine for 4 hours; 13C-Tyrosine by LC-MS; average where tested multiple times; read-out: AC50;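 further: after compound treatment, cells received sepiapterin plus isotope-labelled Phenylalanine for 4 hours, then labelled Tyrosine in the medium was quantified, 10-point 2-fold dilution series run in duplicate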
T1 construct: expressed in transfected cells
T1 sequence (P00439 1-452 R408W): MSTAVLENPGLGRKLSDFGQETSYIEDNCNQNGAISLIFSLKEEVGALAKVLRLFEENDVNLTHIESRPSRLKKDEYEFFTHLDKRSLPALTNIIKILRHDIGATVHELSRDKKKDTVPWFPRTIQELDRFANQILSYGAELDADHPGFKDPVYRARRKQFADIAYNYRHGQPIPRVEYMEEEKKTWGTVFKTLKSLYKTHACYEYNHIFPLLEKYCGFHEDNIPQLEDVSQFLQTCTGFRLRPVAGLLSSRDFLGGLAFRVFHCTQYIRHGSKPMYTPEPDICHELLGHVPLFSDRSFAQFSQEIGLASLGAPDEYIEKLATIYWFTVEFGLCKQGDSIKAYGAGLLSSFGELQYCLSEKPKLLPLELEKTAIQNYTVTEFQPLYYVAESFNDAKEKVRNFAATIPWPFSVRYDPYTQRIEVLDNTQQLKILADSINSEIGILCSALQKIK

SMILES	AC50 [nM]
Cc1cccn2nc(C3c4nc[nH]c4CCN3C(=O)c3nnc(C(C)(C)O)o3)cc12 (stereo not shown)	1000 to 5000
COCc1ccc2c(C(=O)N3CCc4[nH]cnc4C3c3cc4c(C(F)F)cccn4n3)cnn2c1 (stereo not shown)	1000 to 5000
CN(C)Cc1ccc2c(C(=O)N3CCc4[nH]cnc4C3c3cc4cccc(C(F)(F)F)n4n3)cnn2c1 (stereo not shown)	1000 to 5000
O=C(c1ncco1)N1CCc2[nH]cnc2C1c1cc2c(F)cccn2n1 (stereo not shown)	1000 to 5000
Cc1cccc2cc(C3c4nc[nH]c4CCN3c3nnc(-c4cnccn4)o3)nn12 (stereo not shown)	> 5000
FC(F)(F)c1cccc2cc(C3c4nc[nH]c4CCN3c3nnc(C4CCC4)o3)nn12 (stereo not shown)	1000 to 5000
Cc1nnc(N2CCc3[nH]cnc3C2c2cc3cccc(F)n3n2)o1 (stereo not shown)	> 5000
Cc1ccn2nc(C3c4nc[nH]c4CCN3C(=O)c3nnc(C(C)(C)F)o3)cc2c1 (stereo not shown)	> 5000
CN(C)Cc1ccc2c(C(=O)N3CCc4[nH]cnc4C3c3cc4cccc(F)n4n3)cnn2c1 (stereo not shown)	1000 to 5000
Cc1nnc(C(=O)N2CCc3[nH]cnc3C2c2cc3ccccn3n2)o1 (stereo not shown)	> 5000
Cc1nnc(C(=O)N2CCc3[nH]cnc3C2c2cc3cccc(F)n3n2)o1 (stereo not shown)	1000 to 5000
Cc1nc(C(C)O)oc1C(=O)N1CCc2[nH]cnc2C1c1cc2cccc(C)n2n1 (stereo not shown)	1000 to 5000

same assay, conditions: A375 cells expressing human PAH R408W; 24 hrs compound incubation; 13C-Tyrosine by LC-MS; average where tested multiple times; read-out: AC50

SMILES	AC50 [nM]
CC(F)(F)c1nnc(N2CCc3[nH]cnc3[C@H]2c2cc3c(C(F)(F)F)cccn3n2)o1 [Example 2195, (S)-2-(1,1-difluoroethyl)-5-(4-(4-(trifluoromethyl)pyrazolo[1,5-a]pyridin-2-yl)-1,4,6,7-tetrahydro-5H-imidazo[4,5-c]pyridin-5-yl)-1,3,4-oxadiazole]	< 500
Cc1cccn2nc([C@@H]3c4nc[nH]c4CCN3C(=O)C3CC3)cc12 [Example 2024, (S)-cyclopropyl(4-(4-methylpyrazolo[1,5-a]pyridin-2-yl)-1,4,6,7-tetrahydro-5H-imidazo[4,5-c]pyridin-5-yl)methanone]	< 500
Fc1ccc(-c2nnc(N3CCc4[nH]cnc4[C@H]3c3cc4c(C(F)(F)F)cccn4n3)o2)cc1 [Example 1893, (S)-2-(4-fluorophenyl)-5-(4-(4-(trifluoromethyl)pyrazolo[1,5-a]pyridin-2-yl)-1,4,6,7-tetrahydro-5H-imidazo[4,5-c]pyridin-5-yl)-1,3,4-oxadiazole]	< 500
O=C(c1ccnn1-c1ccccn1)N1CCc2[nH]cnc2[C@H]1c1cc2c(F)cccn2n1 [Example 2388, (S)-(4-(4-fluoropyrazolo[1,5-a]pyridin-2-yl)-6,7-dihydro-1H-imidazo[4,5-c]pyridin-5(4H)-yl)(1-(pyridin-2-yl)-1H-pyrazol-5-yl)methanone]	1000 to 5000
Cc1cc(-c2nnc(C(=O)N3CCc4[nH]cnc4[C@@H]3c3cc4c(F)cccn4n3)o2)n[nH]1 [Example 2294, (R)-(4-(4-fluoropyrazolo[1,5-a]pyridin-2-yl)-1,4,6,7-tetrahydro-5H-imidazo[4,5-c]pyridin-5-yl)(5-(5-methyl-1H-pyrazol-3-yl)-1,3,4-oxadiazol-2-yl)methanone]	> 5000
CC(F)(F)c1nnc(N2CCc3[nH]cnc3[C@H]2c2cc3ccccn3n2)o1 [Example 2191, (S)-2-(1,1-difluoroethyl)-5-(4-(pyrazolo[1,5-a]pyridin-2-yl)-1,4,6,7-tetrahydro-5H-imidazo[4,5-c]pyridin-5-yl)-1,3,4-oxadiazole]	500 to 1000

same assay, conditions: A375 cells expressing human R408W PAH; 24 hrs compound incubation; 13C-Tyrosine by LC-MS; average where tested multiple times; read-out: AC50

SMILES	AC50 [nM]
Cc1cccn2nc([C@H]3c4nc[nH]c4CCN3C(=O)c3nnc(-c4ccn(C(F)F)n4)o3)cc12 [Example 823, (R)-(5-(1-(difluoromethyl)-1H-pyrazol-3-yl)-1,3,4-oxadiazol-2-yl)(4-(4-methylpyrazolo[1,5-a]pyridin-2-yl)-6,7-dihydro-1H-imidazo[4,5-c]pyridin-5(4H)-yl)methanone]	1000 to 5000
Cc1cccn2nc([C@@H]3c4nc[nH]c4CCN3C(=O)c3oc(-c4cn(C)cn4)nc3C(F)F)cc12 [Example 931, (S)-(4-(difluoromethyl)-2-(1-methyl-1H-imidazol-4-yl)oxazol-5-yl)(4-(4-methylpyrazolo[1,5-a]pyridin-2-yl)-6,7-dihydro-1H-imidazo[4,5-c]pyridin-5(4H)-yl)methanone]	< 500
C[C@H](O)c1nc(C(F)F)c(C(=O)N2CCc3[nH]cnc3[C@@H]2c2cc3cccc(C(F)(F)F)n3n2)o1 [Example 1201, (4-(difluoromethyl)-2-((S)-1-hydroxyethyl)oxazol-5-yl)((R)-4-(7-(trifluoromethyl)pyrazolo[1,5-a]pyridin-2-yl)-6,7-dihydro-1H-imidazo[4,5-c]pyridin-5(4H)-yl)methanone]	500 to 1000
O=C(c1ocnc1C(F)(F)F)N1CCc2[nH]cnc2[C@@H]1c1cc2ccccn2n1 [Example 611, (R)-(4-(pyrazolo[1,5-a]pyridin-2-yl)-6,7-dihydro-1H-imidazo[4,5-c]pyridin-5(4H)-yl)(4-(trifluoromethyl)oxazol-5-yl)methanone]	1000 to 5000
Cc1ccc(-c2nnc(C(=O)N3CCc4[nH]cnc4[C@@H]3c3cc4ccccn4n3)o2)nc1 [Example 672, (R)-(5-(5-methylpyridin-2-yl)-1,3,4-oxadiazol-2-yl)(4-(pyrazolo[1,5-a]pyridin-2-yl)-6,7-dihydro-1H-imidazo[4,5-c]pyridin-5(4H)-yl)methanone]	> 5000
Cc1ccc2cc([C@H]3c4nc[nH]c4CCN3C(=O)c3nnc(C4CC4)o3)nn2c1 [Example 967, (R)-(5-cyclopropyl-1,3,4-oxadiazol-2-yl)(4-(6-methylpyrazolo[1,5-a]pyridin-2-yl)-6,7-dihydro-1H-imidazo[4,5-c]pyridin-5(4H)-yl)methanone]	> 5000
Cc1cccc2cc([C@@H]3c4nc[nH]c4CCN3C(=O)c3nnc(C4CC4)o3)nn12 [Example 940, (S)-(5-cyclopropyl-1,3,4-oxadiazol-2-yl)(4-(7-methylpyrazolo[1,5-a]pyridin-2-yl)-6,7-dihydro-1H-imidazo[4,5-c]pyridin-5(4H)-yl)methanone]	500 to 1000
O=C(c1nnc(-c2cccnc2)o1)N1CCc2[nH]cnc2[C@@H]1c1cc2cccc(Cl)n2n1 [Example 1307, (R)-(4-(7-chloropyrazolo[1,5-a]pyridin-2-yl)-6,7-dihydro-1H-imidazo[4,5-c]pyridin-5(4H)-yl)(5-(pyridin-3-yl)-1,3,4-oxadiazol-2-yl)methanone]	1000 to 5000
Cn1ccc(-c2nnc(C(=O)N3CCc4[nH]cnc4[C@H]3c3cc4c(C(F)(F)F)cccn4n3)o2)n1 (single isomer, unassigned) [Example 836]	< 500
Cc1cccn2nc([C@@H]3c4nc[nH]c4CCN3C(=O)c3nnc(-c4ncccc4F)o3)cc12 [Example 819, (S)-(5-(3-fluoropyridin-2-yl)-1,3,4-oxadiazol-2-yl)(4-(4-methylpyrazolo[1,5-a]pyridin-2-yl)-6,7-dihydro-1H-imidazo[4,5-c]pyridin-5(4H)-yl)methanone]	< 500
Cc1cccn2nc([C@H]3c4nc[nH]c4CCN3c3nc4ccccc4o3)cc12 [Example 1642, (R)-2-(4-(4-methylpyrazolo[1,5-a]pyridin-2-yl)-6,7-dihydro-1H-imidazo[4,5-c]pyridin-5(4H)-yl)benzo[d]oxazole]	> 5000
Cc1cccn2nc([C@@H]3c4nc[nH]c4CCN3C(=O)c3nc(C(F)(F)F)nn3C)cc12 [Example 1056, (S)-(1-methyl-3-(trifluoromethyl)-1H-1,2,4-triazol-5-yl)(4-(4-methylpyrazolo[1,5-a]pyridin-2-yl)-6,7-dihydro-1H-imidazo[4,5-c]pyridin-5(4H)-yl)methanone]	< 500
O=C(c1cnn2cc(C3CC3)ccc12)N1CCc2[nH]cnc2[C@@H]1c1cc2c(C(F)F)cccn2n1 [Example 1743, (R)-(6-cyclopropylpyrazolo[1,5-a]pyridin-3-yl)(4-(4-(difluoromethyl)pyrazolo[1,5-a]pyridin-2-yl)-6,7-dihydro-1H-imidazo[4,5-c]pyridin-5(4H)-yl)methanone]	1000 to 5000
Cc1nn(C)cc1-c1nnc(C(=O)N2CCc3[nH]cnc3[C@@H]2c2cc3c(C(F)F)cccn3n2)o1 [Example 1467, (R)-(4-(4-(difluoromethyl)pyrazolo[1,5-a]pyridin-2-yl)-6,7-dihydro-1H-imidazo[4,5-c]pyridin-5(4H)-yl)(5-(1,3-dimethyl-1H-pyrazol-4-yl)-1,3,4-oxadiazol-2-yl)methanone]	1000 to 5000
CC(C)c1nnc(C(=O)N2CCc3[nH]cnc3[C@H]2c2cc3cccc(Cl)n3n2)o1 [Example 1488, (S)-(4-(7-chloropyrazolo[1,5-a]pyridin-2-yl)-6,7-dihydro-1H-imidazo[4,5-c]pyridin-5(4H)-yl)(5-isopropyl-1,3,4-oxadiazol-2-yl)methanone]	< 500
C[C@H](O)c1nc(C(F)F)c(C(=O)N2CCc3[nH]cnc3[C@H]2c2cc3cccc(C(F)(F)F)n3n2)o1 [Example 1200, (4-(difluoromethyl)-2-((S)-1-hydroxyethyl)oxazol-5-yl)((S)-4-(7-(trifluoromethyl)pyrazolo[1,5-a]pyridin-2-yl)-6,7-dihydro-1H-imidazo[4,5-c]pyridin-5(4H)-yl)methanone]	500 to 1000
